ChEMBL document CHEMBL5724914, “Linking interpersonal differences in gut microbiota composition and drug biotransformation activity” (2024)

Assay: (§1) The drug is tested on WLS-027 corresponding to human gut metagenome with ENA study accession number: PRJEB37062 and ENA sample accession number: ERS12561744 for biotransformation under anaerobic condition. The drug concentrations were measured over 9 timepoints collected between 0 and 24 hours of incubation by liquid-chromatography-coupled mass spectrometry (LC–MS)
Settings: 2 µM
Note: call rule not given here.

| Compound | Bacterial Biotransformation |
| --- | --- |
| CC(C)OC(=O)C(C)(C)Oc1ccc(C(=O)c2ccc(Cl)cc2)cc1 [FENOFIBRATE] | Compound metabolized |
| COc1c2occc2cc2ccc(=O)oc12 [METHOXSALEN] | Compound metabolized |
| COc1ccc2[nH]c([S+]([O-])Cc3ncc(C)c(OC)c3C)nc2c1 (stereo not given) [OMEPRAZOLE] | Compound metabolized |
| CCC1(c2ccc(N)cc2)CCC(=O)NC1=O (stereo not given) [AMINOGLUTETHIMIDE] | Compound NOT metabolized |

Assay: as §1, with “Z-010” for “WLS-027”, “to” for “to human gut”, “ERS12561810” for “ERS12561744”
Settings: 2 µM

| Compound | Bacterial Biotransformation |
| --- | --- |
| CC(C)OC(=O)C(C)(C)Oc1ccc(C(=O)c2ccc(Cl)cc2)cc1 [FENOFIBRATE] | Compound metabolized |
| COc1c2occc2cc2ccc(=O)oc12 [METHOXSALEN] | Compound metabolized |
| COc1ccc2[nH]c([S+]([O-])Cc3ncc(C)c(OC)c3C)nc2c1 (stereo not given) [OMEPRAZOLE] | Compound metabolized |
| CCC1(c2ccc(N)cc2)CCC(=O)NC1=O (stereo not given) [AMINOGLUTETHIMIDE] | Compound NOT metabolized |

Assay: as §1, with “Z-002” for “WLS-027”, “rabbit” for “human”, “ERS12561802” for “ERS12561744”
Settings: 2 µM

| Compound | Bacterial Biotransformation |
| --- | --- |
| CC(C)OC(=O)C(C)(C)Oc1ccc(C(=O)c2ccc(Cl)cc2)cc1 [FENOFIBRATE] | Compound metabolized |
| COc1c2occc2cc2ccc(=O)oc12 [METHOXSALEN] | Compound metabolized |
| COc1ccc2[nH]c([S+]([O-])Cc3ncc(C)c(OC)c3C)nc2c1 (stereo not given) [OMEPRAZOLE] | Compound NOT metabolized |
| CCC1(c2ccc(N)cc2)CCC(=O)NC1=O (stereo not given) [AMINOGLUTETHIMIDE] | Compound NOT metabolized |

Settings: human gut metagenome, 24 h, 2 µM

| Compound | Bacterial Biotransformation |
| --- | --- |
| CC(C)OC(=O)C(C)(C)Oc1ccc(C(=O)c2ccc(Cl)cc2)cc1 [FENOFIBRATE] | Compound metabolized |
| COc1c2occc2cc2ccc(=O)oc12 [METHOXSALEN] | Compound metabolized |
| COc1ccc2[nH]c([S+]([O-])Cc3ncc(C)c(OC)c3C)nc2c1 (stereo not given) [OMEPRAZOLE] | Compound metabolized |
| CCC1(c2ccc(N)cc2)CCC(=O)NC1=O (stereo not given) [AMINOGLUTETHIMIDE] | Compound NOT metabolized |

Assay: as §1, with “Z-026” for “WLS-027”, “to” for “to human gut”, “ERS12561825” for “ERS12561744”
Settings: 2 µM

| Compound | Bacterial Biotransformation |
| --- | --- |
| CC(C)OC(=O)C(C)(C)Oc1ccc(C(=O)c2ccc(Cl)cc2)cc1 [FENOFIBRATE] | Compound metabolized |
| COc1c2occc2cc2ccc(=O)oc12 [METHOXSALEN] | Compound metabolized |
| COc1ccc2[nH]c([S+]([O-])Cc3ncc(C)c(OC)c3C)nc2c1 (stereo not given) [OMEPRAZOLE] | Compound metabolized |

Assay: as §1, with “WLS-039” for “WLS-027”, “ERS12561746” for “ERS12561744”
Settings: 2 µM

| Compound | Bacterial Biotransformation |
| --- | --- |
| CC(C)OC(=O)C(C)(C)Oc1ccc(C(=O)c2ccc(Cl)cc2)cc1 [FENOFIBRATE] | Compound NOT metabolized |
| COc1c2occc2cc2ccc(=O)oc12 [METHOXSALEN] | Compound metabolized |
| COc1ccc2[nH]c([S+]([O-])Cc3ncc(C)c(OC)c3C)nc2c1 (stereo not given) [OMEPRAZOLE] | Compound metabolized |
| CCC1(c2ccc(N)cc2)CCC(=O)NC1=O (stereo not given) [AMINOGLUTETHIMIDE] | Compound NOT metabolized |

Settings: human gut metagenome, 24 h, 2 µM
Remark: another data set of the same source

| Compound | Bacterial Biotransformation |
| --- | --- |
| CC(C)OC(=O)C(C)(C)Oc1ccc(C(=O)c2ccc(Cl)cc2)cc1 [FENOFIBRATE] | Compound metabolized |
| COc1c2occc2cc2ccc(=O)oc12 [METHOXSALEN] | Compound metabolized |
| COc1ccc2[nH]c([S+]([O-])Cc3ncc(C)c(OC)c3C)nc2c1 (stereo not given) [OMEPRAZOLE] | Compound metabolized |
| CCC1(c2ccc(N)cc2)CCC(=O)NC1=O (stereo not given) [AMINOGLUTETHIMIDE] | Compound NOT metabolized |

Settings: human gut metagenome, 24 h, 2 µM
Remark: another data set of the same source

| Compound | Bacterial Biotransformation |
| --- | --- |
| CC(C)OC(=O)C(C)(C)Oc1ccc(C(=O)c2ccc(Cl)cc2)cc1 [FENOFIBRATE] | Compound NOT metabolized |
| COc1c2occc2cc2ccc(=O)oc12 [METHOXSALEN] | Compound metabolized |
| COc1ccc2[nH]c([S+]([O-])Cc3ncc(C)c(OC)c3C)nc2c1 (stereo not given) [OMEPRAZOLE] | Compound metabolized |
| CCC1(c2ccc(N)cc2)CCC(=O)NC1=O (stereo not given) [AMINOGLUTETHIMIDE] | Compound NOT metabolized |

Settings: human gut metagenome, 24 h, 2 µM
Remark: another data set of the same source

| Compound | Bacterial Biotransformation |
| --- | --- |
| CC(C)OC(=O)C(C)(C)Oc1ccc(C(=O)c2ccc(Cl)cc2)cc1 [FENOFIBRATE] | Compound metabolized |
| COc1c2occc2cc2ccc(=O)oc12 [METHOXSALEN] | Compound metabolized |
| COc1ccc2[nH]c([S+]([O-])Cc3ncc(C)c(OC)c3C)nc2c1 (stereo not given) [OMEPRAZOLE] | Compound metabolized |
| CCC1(c2ccc(N)cc2)CCC(=O)NC1=O (stereo not given) [AMINOGLUTETHIMIDE] | Compound NOT metabolized |

Assay: as §1, with “WLS-038” for “WLS-027”, “ERS12561745” for “ERS12561744”
Settings: 2 µM

| Compound | Bacterial Biotransformation |
| --- | --- |
| CC(C)OC(=O)C(C)(C)Oc1ccc(C(=O)c2ccc(Cl)cc2)cc1 [FENOFIBRATE] | Compound NOT metabolized |
| COc1c2occc2cc2ccc(=O)oc12 [METHOXSALEN] | Compound metabolized |
| COc1ccc2[nH]c([S+]([O-])Cc3ncc(C)c(OC)c3C)nc2c1 (stereo not given) [OMEPRAZOLE] | Compound metabolized |
| CCC1(c2ccc(N)cc2)CCC(=O)NC1=O (stereo not given) [AMINOGLUTETHIMIDE] | Compound NOT metabolized |

Settings: human gut metagenome, 24 h, 2 µM
Remark: another data set of the same source

| Compound | Bacterial Biotransformation |
| --- | --- |
| CC(C)OC(=O)C(C)(C)Oc1ccc(C(=O)c2ccc(Cl)cc2)cc1 [FENOFIBRATE] | Compound NOT metabolized |
| COc1c2occc2cc2ccc(=O)oc12 [METHOXSALEN] | Compound metabolized |
| COc1ccc2[nH]c([S+]([O-])Cc3ncc(C)c(OC)c3C)nc2c1 (stereo not given) [OMEPRAZOLE] | Compound metabolized |
| CCC1(c2ccc(N)cc2)CCC(=O)NC1=O (stereo not given) [AMINOGLUTETHIMIDE] | Compound NOT metabolized |

Assay: as §1, with “WLS-170” for “WLS-027”, “ERS12561762” for “ERS12561744”
Settings: 2 µM

| Compound | Bacterial Biotransformation |
| --- | --- |
| CC(C)OC(=O)C(C)(C)Oc1ccc(C(=O)c2ccc(Cl)cc2)cc1 [FENOFIBRATE] | Compound metabolized |
| COc1c2occc2cc2ccc(=O)oc12 [METHOXSALEN] | Compound metabolized |
| COc1ccc2[nH]c([S+]([O-])Cc3ncc(C)c(OC)c3C)nc2c1 (stereo not given) [OMEPRAZOLE] | Compound metabolized |
| CCC1(c2ccc(N)cc2)CCC(=O)NC1=O (stereo not given) [AMINOGLUTETHIMIDE] | Compound NOT metabolized |

Assay: as §1, with “Z-012” for “WLS-027”, “to” for “to human gut”, “ERS12561812” for “ERS12561744”
Settings: 2 µM

| Compound | Bacterial Biotransformation |
| --- | --- |
| CC(C)OC(=O)C(C)(C)Oc1ccc(C(=O)c2ccc(Cl)cc2)cc1 [FENOFIBRATE] | Compound metabolized |
| COc1c2occc2cc2ccc(=O)oc12 [METHOXSALEN] | Compound metabolized |
| COc1ccc2[nH]c([S+]([O-])Cc3ncc(C)c(OC)c3C)nc2c1 (stereo not given) [OMEPRAZOLE] | Compound NOT metabolized |
| CCC1(c2ccc(N)cc2)CCC(=O)NC1=O (stereo not given) [AMINOGLUTETHIMIDE] | Compound NOT metabolized |

Settings: human gut metagenome, 24 h, 2 µM
Remark: another data set of the same source

| Compound | Bacterial Biotransformation |
| --- | --- |
| CC(C)OC(=O)C(C)(C)Oc1ccc(C(=O)c2ccc(Cl)cc2)cc1 [FENOFIBRATE] | Compound metabolized |
| COc1c2occc2cc2ccc(=O)oc12 [METHOXSALEN] | Compound metabolized |
| COc1ccc2[nH]c([S+]([O-])Cc3ncc(C)c(OC)c3C)nc2c1 (stereo not given) [OMEPRAZOLE] | Compound metabolized |
| CCC1(c2ccc(N)cc2)CCC(=O)NC1=O (stereo not given) [AMINOGLUTETHIMIDE] | Compound NOT metabolized |

Assay: as §1, with “WLS-098” for “WLS-027”, “ERS12561754” for “ERS12561744”
Settings: 2 µM

| Compound | Bacterial Biotransformation |
| --- | --- |
| CC(C)OC(=O)C(C)(C)Oc1ccc(C(=O)c2ccc(Cl)cc2)cc1 [FENOFIBRATE] | Compound metabolized |
| COc1c2occc2cc2ccc(=O)oc12 [METHOXSALEN] | Compound metabolized |
| COc1ccc2[nH]c([S+]([O-])Cc3ncc(C)c(OC)c3C)nc2c1 (stereo not given) [OMEPRAZOLE] | Compound metabolized |
| CCC1(c2ccc(N)cc2)CCC(=O)NC1=O (stereo not given) [AMINOGLUTETHIMIDE] | Compound NOT metabolized |

Assay: as §1, with “Z-011” for “WLS-027”, “mouse” for “human”, “ERS12561811” for “ERS12561744”
Settings: 2 µM

| Compound | Bacterial Biotransformation |
| --- | --- |
| CC(C)OC(=O)C(C)(C)Oc1ccc(C(=O)c2ccc(Cl)cc2)cc1 [FENOFIBRATE] | Compound metabolized |
| COc1c2occc2cc2ccc(=O)oc12 [METHOXSALEN] | Compound NOT metabolized |
| COc1ccc2[nH]c([S+]([O-])Cc3ncc(C)c(OC)c3C)nc2c1 (stereo not given) [OMEPRAZOLE] | Compound NOT metabolized |

Assay: as §1, with “WLS-007” for “WLS-027”, “ERS12561742” for “ERS12561744”
Settings: 2 µM

| Compound | Bacterial Biotransformation |
| --- | --- |
| COc1ccc2[nH]c([S+]([O-])Cc3ncc(C)c(OC)c3C)nc2c1 (stereo not given) [OMEPRAZOLE] | Compound metabolized |
| CCC1(c2ccc(N)cc2)CCC(=O)NC1=O (stereo not given) [AMINOGLUTETHIMIDE] | Compound NOT metabolized |

Assay: as §1, with “WLS-240” for “WLS-027”, “ERS12561773” for “ERS12561744”
Settings: 2 µM

| Compound | Bacterial Biotransformation |
| --- | --- |
| CC(C)OC(=O)C(C)(C)Oc1ccc(C(=O)c2ccc(Cl)cc2)cc1 [FENOFIBRATE] | Compound NOT metabolized |
| COc1c2occc2cc2ccc(=O)oc12 [METHOXSALEN] | Compound metabolized |
| COc1ccc2[nH]c([S+]([O-])Cc3ncc(C)c(OC)c3C)nc2c1 (stereo not given) [OMEPRAZOLE] | Compound metabolized |
| CCC1(c2ccc(N)cc2)CCC(=O)NC1=O (stereo not given) [AMINOGLUTETHIMIDE] | Compound NOT metabolized |

Settings: human gut metagenome, 24 h, 2 µM
Remark: another data set of the same source

| Compound | Bacterial Biotransformation |
| --- | --- |
| CC(C)OC(=O)C(C)(C)Oc1ccc(C(=O)c2ccc(Cl)cc2)cc1 [FENOFIBRATE] | Compound NOT metabolized |
| COc1c2occc2cc2ccc(=O)oc12 [METHOXSALEN] | Compound metabolized |
| COc1ccc2[nH]c([S+]([O-])Cc3ncc(C)c(OC)c3C)nc2c1 (stereo not given) [OMEPRAZOLE] | Compound metabolized |
| CCC1(c2ccc(N)cc2)CCC(=O)NC1=O (stereo not given) [AMINOGLUTETHIMIDE] | Compound NOT metabolized |

Assay: as §1, with “WLS-010” for “WLS-027”, “ERS12561743” for “ERS12561744”
Settings: 2 µM

| Compound | Bacterial Biotransformation |
| --- | --- |
| CC(C)OC(=O)C(C)(C)Oc1ccc(C(=O)c2ccc(Cl)cc2)cc1 [FENOFIBRATE] | Compound NOT metabolized |
| COc1c2occc2cc2ccc(=O)oc12 [METHOXSALEN] | Compound metabolized |
| CCC1(c2ccc(N)cc2)CCC(=O)NC1=O (stereo not given) [AMINOGLUTETHIMIDE] | Compound NOT metabolized |
